Test results reported in patent publication US11505530B2, “1,8-naphthalimide derivative, preparation method therefor and use thereof” (SOOCHOW UNIVERSITY, priority 2018, dated 2022).

What was measured:
Type in all cases: physicochemical
[1] = Speed of response of BNGT to pH; settings: three solvents
From the text: To investigate the speed of response of BNGT to pH, adding 1 M NaOH aqueous solution to an acetonitrile/water (in a volume ratio of 1/99 (a), 1/1 (b) and 8/2 (c)) solution of BNGT at pH 5.8 to adjust the pH to 6.0; measuring the UV-Vis absorption spectrum of the solution before and after the adjustment, and plotting the maximum absorption wavelength and color over time, with the results as shown in FIG. 8; solvent: acetonitrile/water, in a volume ratio of 1/99 (a), 1/1 (b) and 8/2 (c); concentration: BNGT 10 μM.
The absorbance was plotted against time and the results were shown in FIG. 9; solvent: acetonitrile/water, in a volume ratio of 1/99 (a), 1/1 (b) and 8/2 (c); concentration: BNGT 10 μM; absorption wavelength: 527 nm, 535 nm and 537 nm.

[2] = UV-Vis absorption response of BNGT to pH; settings: for maximum absorption wavelength: BNGT 10 μM
Procedure: Preparing a 1.0×10^−3 mol/L BNGT stock solution with acetonitrile as a solvent, and transferring 100 μL of the BNGT stock solution respectively into three series of 10 mL volumetric flasks; adding 7 mL of deionized water to the first series of volumetric flasks, adding 2 mL of deionized water and 5 ml of acetonitrile to the second series of volumetric flasks, and adding 1 mL of deionized water and 8 ml of acetonitrile to the third series of volumetric flasks; then titrating to the desired pH value respectively with 0.1 M NaOH and 0.1 M HCl aqueous solutions, and finally making up to volume with deionized water to obtain an acetonitrile/water solution of BNGT with different pHs in three solvent systems, the volume ratios of acetonitrile/water in the three solvent systems being 1/99, 1/1 and 8/2, respectively.
Therefore, in the three solvents (acetonitrile/water in a volume ratio of 1/99, 1/1 and 8/2), BNGT could be used as a pH colorimetric switch by means of three ways (a maximum absorption wavelength, absorbance and color).

[3] = Reversibility of BNGT as pH colorimetric switch; settings: pH alternating between 5.8 and 6.0
From the text: 1 M HCl and 1 M NaOH were used to make the pH value of the acetonitrile/water (in a volume ratio of 1/99 (a), 1/1 (b) and 8/2 (c)) solution of BNGT alternately change between 5.8 and 6.0, so as to determine the UV-Vis absorption spectrum of the solution.
First, the reversibility of response of the maximum absorption wavelength and color of the solution to pH was investigated, with the results as shown in FIG. 12; solvent: acetonitrile/water, in a volume ratio of 1/99 (a), 1/1 (b) and 8/2 (c); concentration: BNGT 10 μM.
Second, the reversibility of response of the absorbance of BNGT to pH at 527 nm, 535 nm and 537 nm was investigated, with the results as shown in FIG. 13; solvent: acetonitrile/water, in a volume ratio of 1/99 (a), 1/1 (b) and 8/2 (c); concentration: BNGT 10 μM; the maximum absorption wavelengths corresponding to the absorbance of the three solutions were 527 nm, 535 nm and 537 nm, respectively. It can be seen from the figure that the pH value alternated between 5.8 and 6.0, and the absorbance of the acetonitrile/water (in a volume ratio of 1/99 (a), 1/1 (b) and 8/2 (c)) solution of BNGT also changed circularly from small to large at 527 nm, 535 nm and 537 nm, respectively.

[4] = Effect of coexisting metal ions on BNGT as pH colorimetric switch; settings: pH 5.8 and pH 6.0, metal ions 100 μM
Procedure: In order to understand the interference of common metal ions on BNGT as a pH colorimetric switch, Fe^2+, Fe^3+, Cu^2+, K^+, Na^+, Mg^2+, Ag^+, Zn^2+, Cr^3+, Cd^2+, […], Ni^2+, Mn^2+, Pb^2+, Hg^2+ and Ca^2+ were added to the acetonitrile/water (in a volume ratio of 1/99 (a), 1/1 (b) and 8/2 (c)) solution, and the UV-Vis absorption spectra of the solution before and after the addition of these metal ions were obtained. […]
Second, the effect of coexisting metal ions on the absorbance of the solution at 527 nm, 535 nm and 537 nm was investigated, with the results as shown in FIG. 11; solvent: acetonitrile/water, in a volume ratio of 1/99 (a), 1/1 (b) and 8/2 (c); concentration: BNGT 10 μM, metal ions 100 μM; 1: none, 2: Ca^2+, 3: Mg^2+, 4: Ag^+, 5: Pb^2+, 6: Cu^2+, 7: Mn^2+, 8: Co^2+, 9: Cd^2+, 10: Ni^2+, 11: K^+, 12: Na^+, 13: Fe^3+, 14: Zn^2+, 15: Cr^2+, 16: Hg^2+, 17: Fe^2+; absorption wavelength: 527 nm, 535 nm and 537 nm. […] Therefore, the aforementioned metal ions had little effect on the response of BNGT to pH in terms of enhanced absorbance.

[5] = pH 5.8 to 6.0, acetonitrile/water 1/1
[6] = pH 5.8 to 6.0, acetonitrile/water 1/99
[7] = pH 5.8 to 6.0, acetonitrile/water 8/2

## CCCCN1C(=O)c2cccc3c(NN=CC=NC(CO)(CO)CO)ccc(c23)C1=O [BNGT]
[1]; after pH adjusted to 6.0
  stability of absorbance for the next 30 min: remained basically stable
[1]; pH 5.8 adjusted to 6.0 with NaOH, 527 nm, 535 nm and 537 nm
  time for absorbance to reach the maximum: about 2 min
[1]; pH changed from 5.8 to 6.0
  color change: colorless to red
[2]; pH 1.9 to 5.8, acetonitrile/water 1/1
  maximum absorption wavelength: around 420 nm
[2]; pH 1.9 to 5.8, acetonitrile/water 1/99
  maximum absorption wavelength: around 432 nm
[2]; pH 1.9 to 5.8, acetonitrile/water 8/2
  maximum absorption wavelength: around 422 nm
[2]; [5]
  increase of absorbance at 535 nm: about 20 times
  red shift of maximum absorption wavelength: 115 nm
[2]; [6]
  increase of absorbance at 527 nm: about 6 times
  red shift of maximum absorption wavelength: 95 nm
[2]; [7]
  increase of absorbance at 537 nm: about 28 times
  red shift of maximum absorption wavelength: 115 nm
[2]; pH 6.0 to 12.0, acetonitrile/water 1/1
  maximum absorption wavelength: around 535 nm
[2]; pH 6.0 to 12.0, acetonitrile/water 1/99
  maximum absorption wavelength: about 527 nm
[2]; pH 6.0 to 12.0, acetonitrile/water 8/2
  maximum absorption wavelength: around 537 nm
[3]; 527 nm, 535 nm and 537 nm
  reversibility of response of absorbance to pH: very good reversibility
[3]; three solvents
  reversibility of response of maximum absorption wavelength and color to pH: good reversibility
[4]; 527 nm, 535 nm and 537 nm
  effect of coexisting metal ions on absorbance: did not change much
[4]; BNGT 10 μM, three solvents
  effect of coexisting metal ions on maximum absorption wavelength and color: almost unchanged
